Key:
rumen microbiota = experiment: Gas Production Test, in vitro rumen fermentation model (Example 1); format: cell-based; conditions: 15 mg N per flask, 72 hours incubation
Description: The in vitro model used to simulate rumen digestion and utilization of the products is the Gas Production Test protocol, adapted for protein digestibility, as described in more detail in the following paragraph.
Approximately 1 liter of rumen fluid was collected from two different rumen-fistulated animals in the morning. Rumen fluid was strained through a cheesecloth, kept at 39° C. under CO2 and then diluted 1:19 with a nitrogen-free buffer and mineral solution containing 10.03 g NaHCO3, 1.43 g Na2HPO4, 1.55 g KH2PO4, 0.15 g MgSO4·7H2O, 0.52 g Na2S, 0.017 g CaCl2·2H2O, 0.015 g MnCl2·4H2O, 0.002 g […], 0.012 g FeCl3·6H2O and 0.125 mg resazurin per liter.
To ensure the rumen fluid was depleted of free nitrogen and to ensure nitrogen would be the limiting factor for the microbial growth at the start of the experiment, the buffered rumen fluid was pre-incubated for 4 hours at 39° C. with a carbohydrate overload of glucose, xylose and soluble starch, each at 3.33 g/l. During this pre-incubation, all nitrogen available in the rumen fluid would be incorporated into bacterial protein and other bacterial nitrogen-containing components.
Each product was weighed into different glass bottles on an isonitrogenous base, providing 15 mg N per flask. Then, 60 ml of the pre-incubated buffered rumen fluid was added, under continuous flushing with CO2. Flasks were closed with rubber stoppers and placed in a shaking water bath with 50 movements per minute at 39° C. to start the incubation period. The gas production of each flask was recorded continuously for 72 hours using a fully automated system. All test products including a blank (i.e. no product added to the flask of rumen fluid) were tested in one run in triplicate.
The cumulative gas production was measured continuously for 72 hours.

[1] = animal performance of steers with NPN supplementation (Example 3); format: in vivo, crossbred yearling steers
From the text: A total of 72 crossbred yearling steers [303 kg±29 kg initial body weight (BW) were stratified by body weight (BW) and randomly allocated to three treatments. All steers consumed a basal diet of corn silage, cotton-gin trash, and a premix of vitamins and minerals.
The steers were housed in pens (8 steers/pen, 3 pens/treatment). The steers were supplemented with two different NPN-sources on an isonitrogenous basis, considering as reference the N provided by urea when included at 1 wt. % of the diet in dry matter (DM) basis.
In Table 5, the composition of the basal diet supplemented with two different types of NPN, i.e. urea (Urea) (46% N) and a mixture of urea and biuret according to the present disclosure (UB), with composition as in example 1 (41% N) is shown.
The gain to feed ratio (G:F) was computed as the ratio of the average daily gain (ADG) to daily dry matter intake (DMI). The feed intake was recorded daily. The individual intake was determined via the GrowSafe® intake monitoring system. In cattle management, GrowSafe Systems is a commonly used tool to closely monitor individual animal feeding data using radio frequency identification (RFID) tag technology. The animals are equipped with a unique RFID tag that is read by the feed bunks each time the animal lowers its head into the bunk to consume feed. Average daily weight gain (ADG) and feed efficiency were calculated during the performance evaluation. The ADG was determined by the difference between the final BW and the initial BW divided by the number of days of the performance evaluation (56 days). The initial BW was calculated as the average unshrunk BW of […] on days 16 and 17. The final BW was the average unshrunk BW measured on days 72 and 73. The unshrunk BW was obtained every 14 days.

[2] = as above; format: in vivo, crossbred yearling steers; remark: listed apart in the source
beef steers = experiment: enteric methane emission, SF6 tracer technique (Example 3); format: in vivo, crossbred yearling steers
Description: Methane emission was measured in all steers for five consecutive days using the SF6 tracer technique (Johnson et al., 1994; Henry et al., 2020). In this technique, the steers received a calibrated permeation tube filled with SF6 (3.1 g+0.2 g) before the measurement period. The average SF6 release rate was […]+1.1 mg/d. After five days of training, a vacuum gas collector canister was attached to each animal to collect a sample of daily gas production. Each day at the same hour, a new vacuum canister was replaced throughout the five days of the measurement period. Five collection canisters were used to determine environmental CH4 and SF6 concentrations. A gas sample was taken from each canister and conserved in 120 ml bottles for posterior analysis of CH4 and SF6 using gas chromatography. For the current experiment, only steers with a least three successful days of collection and measurement were considered in the final analysis. Gas samples were analyzed by gas chromatography (Agilent 7820A GC, Agilent Technologies, Palo Alto, CA). A flame ionization and electron capture detector were used for CH4 and SF6 analysis, respectively, with a capillary column (Plot Fused Silica 25 m×0.32 mm, Coating Molsieve 5A, Varian CP7536, Varian Inc., Lake Forest, CA). The injector, column and detector temperatures for CH4 analysis were 80, 160 and 200° C., respectively. For SF6, temperatures were 50, 30 and 300° C. for the injector, the column and the detector, respectively. The carrier gas for CH4 and SF6 was N2. The emissions of CH4 were calculated according to the next equation:
[formula] • QCH4=CH4 emissions per animal (g/day) • QSF6=SF6 release rate (mg/day) • [CH4]γ=the concentration of CH4 in the animals' collection canister • [CH4]β=the concentration of CH4 in the environmental collection canister • [SF6]γ=the concentration of SF6 in the animals' collection canister • [SF6]β=the concentration of SF6 in the environmental collection canister

[3] = five consecutive days, SF6 tracer

Structure (SMILES): NC(N)=O [Urea, urea]
- maximum gas production rate (rumen microbiota): 17 mL/h
- time after which gas production stopped / maximum cumulative gas production (end level) was reached (rumen microbiota): 30 h
- lag period of cumulative gas production (rumen microbiota; buffered rumen fluid, 39° C.): approximately 5 hours
- DMI ([1]; days 0-14): 6.82 kg/day
- G:F ([1]; days 0-14): 0.10 kg/kg
- DMI ([1]; days 0-28): 7.03 kg/day
- G:F ([1]; days 0-28): 0.11 kg/kg
- DMI ([1]; days 0-42): 7.24 kg/day
- G:F ([1]; days 0-42): 0.14 kg/kg
- ADG ([1]; days 0-56): 1.01 kg
- DMI ([1]; days 0-56): 7.29 kg/day
- G:F ([1]; days 0-56): 0.14 kg/kg
- DMI (% of BW) ([1]; steers): 2.31 % of BW
- NEg ([1]; steers): 0.55 Mcal/kg of DM
- Initial BW ([1]; steers, baseline, NPN 1.00 wt. % urea or 1.12 wt. % UB of diet DM): 288.69 kg
- Final BW ([1]; steers, end of 56 days performance evaluation): 343.69 kg
- ADG ([2]; days 0-14): 0.78 kg
- ADG ([2]; days 0-28): 0.81 kg
- ADG ([2]; days 0-42): 1.02 kg
- DM intake (beef steers; Table 7 (methane measurement)): 6.08 kg/day
- Methane emission (g/kg ADG) (beef steers; [3]): 213.79 g/kg ADG
- Methane emission (g/kg DMI) (beef steers; [3]): 36.59 g/kg DMI
- Methane emission (g/kg OMI) (beef steers; [3]): 38.68 g/kg OMI

Source: US20250161245A1, “A MIXTURE OF UREA, BIURET AND N-CONTAINING BY-PRODUCTS CREATED DURING BIURET PRODUCTION AS A DIETARY NON-PROTEIN NITROGEN-SOURCE FOR RUMINANTS AND USES THEREOF” (Yara International ASA, priority 2022, published 2025)
